Earlier results as cited in patent US20080044486A1, “Controlled Food Effect Composition” (priority 2003, published 2008).

Experiments:
[1] = oral, conventional pharmaceutical composition

SMILES	Food effect in a conventional composition (references) [1]	LogP
CC(=O)Oc1ccccc1C(=O)O [Acetylsalicylic acid]	Delayed absorption and reduced	
COc1cc(C)c(/C=C/C(C)=C/C=C/C(C)=C/C(=O)O)c(C)c1C [Acitretin]	Increased absorption (2, 4)	6.4
CCCCc1oc2ccccc2c1C(=O)c1cc(I)c(OCCN(CC)CC)c(I)c1 [Amiodarone]	Increased absorption (3)	
CO[C@H]1O[C@@H]2O[C@@]3(C)CC[C@H]4[C@H](C)CC[C@@H]([C@H]1C)[C@@]24OO3 [Artemether]	High-fat food gives increased	3.5
O=C1C(O)=C([C@H]2CC[C@H](c3ccc(Cl)cc3)CC2)C(=O)c2ccccc21 [Atovaquone]	High-fat food gives increased	4.9
CC(C)/N=c1\cc2n(-c3ccc(Cl)cc3)c3ccccc3nc-2cc1Nc1ccc(Cl)cc1 [Clofazimine]	Increased absorption (2, 4)	
C#C[C@]1(O)CC[C@H]2[C@@H]3CCC4=Cc5oncc5C[C@]4(C)[C@H]3CC[C@@]21C [Danazol]		4.3
CCOC(=O)/C=C(C)/C=C/C=C(C)/C=C/c1c(C)cc(OC)c(C)c1C [Etretinate]		6.6
CCOC(=O)C1=C(C)NC(C)=C(C(=O)OC)C1c1cccc(Cl)c1Cl (stereo not shown) [Felodipine]	High-fat food gives increased	
CC1=C(/C=C/C(C)=C/C=C/C(C)=C/C(=O)Nc2ccc(O)cc2)C(C)(C)CCC1 [Fenretinide]	High-fat food gives increased	6.1
CC1=C(/C=C/C(C)=C/C=C/C(C)=C\C(=O)O)C(C)(C)CCC1 [Isotretinoin]	Increased absorption (7)	
CCC(C)n1ncn(-c2ccc(N3CCN(c4ccc(OCC5COC(Cn6cncn6)(c6ccc(Cl)cc6Cl)O5)cc4)CC3)cc2)c1=O (stereo not shown) [Itraconazole]	Increased but delayed absorption	5.7
CCOC(=O)N1CCC(=C2c3ccc(Cl)cc3CCc3cccnc32)CC1 [Loratadine]	Increased but delayed absorption	
CCCCN(CCCC)CC(O)c1cc(Cl)cc2c1-c1ccc(Cl)cc1/C2=C/c1ccc(Cl)cc1 (stereo not shown) [Lumefantrine]	High-fat food gives increased	8.9
COC(=O)C1=C(C)NC(C)=C(C(=O)OCCN2CCN(C(c3ccccc3)c3ccccc3)CC2)C1c1cccc([N+](=O)[O-])c1 (stereo not shown) [Manidipine]	Increased absorption (2)	4.1
Cc1c(-c2cnccn2)ssc1=S [Oltipraz]	Increased absorption (6)	1.7
O=C(c1ccc(OCCN2CCCCC2)cc1)c1c(-c2ccc(O)cc2)sc2cc(O)ccc12 [Raloxifene]		5.5
NC(=O)c1ncn([C@@H]2O[C@H](CO)[C@@H](O)[C@H]2O)n1 [Ribavirin]	High-fat food gives increased	−1.9
CC(C)c1nc(CN(C)C(=O)N[C@H](C(=O)N[C@@H](Cc2ccccc2)C[C@H](O)[C@H](Cc2ccccc2)NC(=O)OCc2cncs2)C(C)C)cs1 [Ritonavir]	Increased absorption (1, 4, 5)	
NC(=O)c1cn(Cc2c(F)cccc2F)nn1 [Rufinamide]		0.8
CC(C)(C)NC(=O)[C@@H]1C[C@@H]2CCCC[C@@H]2CN1C[C@@H](O)[C@H](Cc1ccccc1)NC(=O)[C@H](CC(N)=O)NC(=O)c1ccc2ccccc2n1 [Saquinavir]		3.8
CO[C@H]1C[C@@H]2CC[C@@H](C)[C@@](O)(O2)C(=O)C(=O)N2CCCC[C@H]2C(=O)O[C@H]([C@H](C)C[C@@H]2CC[C@@H](O)[C@H](OC)C2)CC(=O)[C@H](C)/C=C(\C)[C@@H](O)[C@@H](OC)C(=O)[C@H](C)C[C@H](C)/C=C/C=C/C=C/1C [Sirolimus]	High-fat food gives increased	5.3
CC(=O)S[C@@H]1CC2=CC(=O)CC[C@]2(C)[C@H]2CC[C@@]3(C)[C@@H](CC[C@@]34CCC(=O)O4)[C@H]12 [Spironolactone]	Increased absorption and reduced	2.8
CC(C)OC(=O)OCOP(=O)(CO[C@H](C)Cn1cnc2c(N)ncnc21)OCOC(=O)OC(C)C [Tenofovir disoproxil]	High-fat food gives increased	0.6
CCCC(CCC)C(=O)O [Valproic acid]	Delayed absorption and reduced	
